Experimental data: patent EP2138174A1, “PHARMACEUTICAL COMPOSITION IN THE FORM OF A SUBLINGUAL TABLET CONSISTING OF A NON-STEROIDAL ANTI-INFLAMMATORY AGENT AND AN OPIATE ANALGESIC FOR PAIN MANAGEMENT” (priority 2007, dated 2008)
Where “and” joins values, the source holds several entries; their conditions need not be identical. Identical values can stand only once. Counter-ions that a name gives are not always drawn. Like-named read-outs stand apart in the source and are kept apart here.

Legend:
stomach = test: Gastrointestinal side effect measurement (gastric ulcers and erosions, relative to indomethacin); assay type: in vivo, Female rats from Wistar type; conditions: for Gastric lesion ((Index of ulcers in drug tests / Index of ulcers in indomethacin tests) x 100): relative to indomethacin 20 mg/kg = 100, same doses and schedule as ulcer column
Method: Female rats from Wistar type (150-180 g body weight) were subject to fasting 24 hours before experimentation. […] 2.5 hours later, all the groups received a second administration of the same doses. Stomachs were examined at 5 hours after first treatment in the following way: animals were sacrificed and stomach was separated which was opened along its lower curvature, gently rinsing with formol (2%) and examined. Severity of induced gastric lesions with medicament was calculated as a ratio of number of lesions (stomach ulcer or erosion) caused by provided treatment and the number of lesions caused by indomethacin (100%). This was determined to reflect the side effects induced by medicament. The sum of the area of all the ulcers in the body of each animal was calculated and served as an ulcerative index. Gastric lesion percentage was calculated in the following way: % of gastric lesion = (IUM/IUI) × 100 [formula] wherein IUM is the Medicament Ulcerative Index on test (mm^2) and IUI is the Ulcerative Index for assayed Indomethacin (mm^2).
ABC was calculated for each drug combination and for each of the components. On the basis of addition of individual pharmacological effects (Seegers et al., 1981) an ABC equivalent to the sum was expected. If the sum of the corresponding individual ABC was higher than the theoretical sum, the result was determined as enhancement; when similar to the theoretical sum it was determined to show additive antinociceptive effects. ABC was obtained through the trapezoidal rule (Rowland and Trozer, 1989). All the values for each treatment were average ± S.E.M., for six animals. ABC values for drug combinations were compared with the values which were expected by using the Student test. […] A P<0.05 was determined as statistically significant.

rat arthritic pain model = test: PIFIR model: antinociceptive activity after intraarticular uric acid (rat arthritic pain model); assay type: in vivo, Wistar [CRl (WI) BR] female rats; parameters: antinociceptive efficiency (ABC): dose or concentration left out as unconfirmed
Method: A rat arthritic pain model was determined for said purpose. Data were interpreted by using a Surface Synergic Interaction Analysis (ISS) and an Isobolographic Analysis to determine the interaction nature. ISS is calculated from the total antinociceptive effect produced by a combination after a substraction of an antinociceptive effect produced separately by the drug.
For this trial, Wistar [CRl (WI) BR] female rats weighing 180-200 g. were weighed. Feed was maintained 12 hours before the water ad libitum access experiments. All the experimental procedures followed the recommendations of the Committee for Research and Ethical Issues of the International Association for the Study of Pain (Covino et al., 1980) and Guidelines on Ethical Standards for Investigations of Experimental Pain in Animals (Zimmermann, 1983) and they were carried out according to a protocol approved by the local Animal Ethics Committee. Animal number in experiment was kept at a […] and animals were maintained in a weathered room and light control with a 12-hour light/darkness cycle.
Uric acid was suspended in mineral oil; Ketorolac trometamine, tramadol hydrochloride and indomethacin were dissolved in carboxymethyl cellulose and orally administered.
Antinociceptive activity was determined by using a PIFIR model which has been described in detail (López-Muñoz et al., 1993). Animals were anesthetized with chamber ether (Pyrex-glass dryer saturated with ether vapor). Nociception was induced through an intraarticular injection (ia) of 0.5 mL uric acid suspended in mineral oil in the right-hind leg knee joint. Suspension was prepared by mixing 3.0 g of uric acid with 10 mL of mineral oil in a glass mortar with pestle (Pyrex). Intraarticular injection was carried out through the patellar ligament using a 1 mL glass syringe (Beckton Dickinson LTA, Brazil) with a 5 mm 24-needle. Immediately after, an electrode was implanted in the plantar surface of each hind claw between the plantar pads. Rats were allowed to recover from anesthesia and then a stainless steel cylinder was attached which was rotated at 4 rpm, forcing to the rats to walk for 2 minute periods every 30 minutes during 6.5 hours. It was not necessary a training period since rats learned it from the first minute. Contact time between each implanted electrode in rat limb and cylinder was registered. After the uric acid injection, rats progressively developed damaged limb dysfunction. […] This time was considered as zero time for antinoceptive effect measures; these effects are measured every 30 minutes during the following 4 hours. This allowed determining the course of the nociceptive effects in the same animal. Antinociception was considered as a recovery of contact time. Data are expressed as a performance percentage index (IF%; that is, contact time of injected leg divided by contact time of left leg, control, multiplied per 100). For the purpose of this trial, it was unavoidable to induce nociception in experimentation animals. However, care was taken in preventing an unnecessary suffering. All the experiments were performed between 7:00 A.M. and 2:00 P.M.
At the end of the study the rats were sacrificed.
Study data, tables and figures are expressed as IF%. IF% vs. time curves were prepared for each treatment and the corresponding time course was obtained. Antinociception was estimated as a recovery of IF%. Accumulated antinociceptive effect during all the observation period (4 hours) was determined as the area under the curve (ABC) for time course to obtain the dose-response curve and for analyzing the total antinociceptive effect obtained for the analgesic agent whether alone and in combination.
ABC was calculated for each drug combination and for each of the components. On the basis of addition of individual pharmacological effects (Seegers et al., 1981) an ABC equivalent to the sum was expected. […]

[1] = in vivo
Method: Blood samples were taken up to 24 hours after medicament delivery.
In order to determine whether bioavailability is existent or not between both medicaments, a logarithmic transformation of data was carried out and they were analyzed by means of the statistical package WinNonlinTM.
Confidence ranges proposed by FDA for semilogarithmic data in determining bioequivalency of two products are from 80 to 125%.

[2] = ketorolac, cited from earlier work
[3] = cited from earlier work
[4] = p.o., two administrations 2.5 hours apart, stomach examined at 5 hours, indomethacin 20 mg/kg, ketorolac 1 mg/kg, tramadol 17.8 mg/kg, combination as in title, six rats

COc1ccc2c(c1)c(CC(=O)O)c(C)n2C(=O)c1ccc(Cl)cc1 [Indomethacin]
No. of erosions (stomach; [4]): 30.0 ± 3.9 | Ulcers (sum of the area of all ulcers) (stomach; [4]): 51.6 ± 3.4 mm^2 | Gastric lesion ((Index of ulcers in drug tests / Index of ulcers in indomethacin tests) x 100) (stomach): 100%

O=C(c1ccccc1)c1ccc2n1CCC2C(=O)O (centres unmarked) [Ketorolac, Ketorolac trometamine]
Emax (rat arthritic pain model; IF% time course, ketorolac 0.32 mg/kg p.o. alone): 33.7 ± 8.7% | ED50 (rat arthritic pain model; Rattus norvegicus, po, dose causing 50% of maximum possible effect, linear regression of dose-response curve, ± S.E.M., read-out: DE50 (the source's name)): 0.86 ± 0.1 mg/kg | ABC (rat arthritic pain model; ketorolac 0.32 mg/kg p.o. alone, 4 hours): 65.0 ± 9.6 au | ABC (rat arthritic pain model; ketorolac 0.56 mg/kg p.o. alone, 4 hours): 98.7 ± 15.5 au | ABC (rat arthritic pain model; ketorolac 1.78 mg/kg p.o. alone, 4 hours): 279.0 ± 15.5 au | antinociceptive effect (ABC) (rat arthritic pain model; ketorolac 3.16 mg/kg p.o., maximum used dose): 295.8 ± 14.9 au | effect on walking capacity of rats treated with vehicle (rat arthritic pain model; ketorolac 0.18 -5.62 mg/kg, tramadol 3.16-56.23 mg/kg, no uric acid, data not shown): did not affect the walking capacity | antinociceptive efficiency (ABC) (rat arthritic pain model; ketorolac p.o., area under IF% vs time curve, 4 hours, mean ± S.E.M., six animals): 295.8 ± 14.9 au | Ulcers (sum of the area of all ulcers) (stomach; [4]): 13.7 ± 2.7 mm^2 and 13.7 ± 2.7^c mm^2 | Gastric lesion ((Index of ulcers in drug tests / Index of ulcers in indomethacin tests) x 100) (stomach): 26.6% | Ratio (%Ref), LnAUCINF ([1]; human): 95.53 %Ref | Ratio (%Ref), Ln (Cmax) [1]: 72.78 %Ref | start of analgesic effect ([2]; intramuscular administration): 30 min | start of analgesic effect ([2]; oral administration): 10 min | dose removed by urine without any change ([3]; ketorolac, remainder excreted in feces): about 91%

COc1cccc(C2(O)CCCCC2CN(C)C)c1 (centres unmarked) [Tramadol, Tramadol Hydrochloride]
Antinociceptive effects (ABC) (rat arthritic pain model; rat, in vivo): 236.7 ± 11.0 au | Emax (rat arthritic pain model; rat, in vivo): 17.1 ± 9.1% | antinociceptive activity (ABC) (rat arthritic pain model; rat, in vivo): 207.7 ± 24.7 au | effect on walking capacity of rats treated with vehicle (rat arthritic pain model; rat, in vivo): did not affect the walking capacity | side effects (sedation, elation, dizziness and effects on walking capacity) (rat arthritic pain model; rat, in vivo): 50 % of animals | DE50 (rat arthritic pain model; rat, in vivo, po): 44.29 ± 0.06 mg/kg | No. of erosions (stomach; rat, in vivo): 0 | Ulcers (sum of the area of all ulcers) (stomach; rat, in vivo): 0 mm^2 | ulcers or erosions (in words) (stomach; rat, in vivo): did not cause ulcers or erosions | bioavailability ([3]; in vivo, po): 79% | time to maximum plasma concentrations ([3]; in vivo, po): 1.5 to 2 h
